# PMC10464297, “Reevaluation of bromodomain ligands targeting BAZ2A” (Protein Science : A Publication of the Protein Society, 2023)
# “Also recorded” adds a separate entry of the source.
# Legend:
# 22Rv1 spheroids = assay: Spheroid growth (3D), 22Rv1; assay type: cell-based
# Method: Cell cultures, proliferation assay and spheroid gro wth
# PC3 and 22Rv1 cells were cultured in RPMI 1640 medium containing 10% FBS, 1% penicillin-streptomycin and 2 m M L-glutamine. All cells were regularly tested for mycoplasma contamination. […]
# Spheroids were obtained by plating PC3 and 22Rv1 cells in low -adhesion round bottom 96 -well plates. For 22Rv1, 2500 cells/well were seeded in 200 µl RPMI 1640; for PC3, 250 cells/well were seeded in 200 µl RPMI 1640 supplemented with 1.5% Matrigel. After seeding, the cells were centrifuged for 10 min at 1200 x g at 4°C. Spheroids were given 48 hours to form after seeding before adding the treatment or the carrier (0.1% DMSO). Medium supplemented with treatment/carrier was changed every 48 hours, for a total of 32 days for 22Rv1 and 16 days for PC3. Each spheroid was imaged in brightfield every day or every other day (after day 20), using a Leica DM IL microscope […]
# (§1) equipped with a Leica DFC450C digital camera. The area of each spheroid was measured using ImageJ and the average area for each condition was calculated. The growth rate was analysed using the segmental linear regression algorithm of GraphPad Prism. The appropriateness of the model was evaluated by considering the R square values and the Replicates test (Suppl. Table 6). […]
# PC3 spheroids = assay: Spheroid growth (3D), PC3; assay type: cell-based
# Method: Cell cultures, proliferation assay and spheroid gro wth […]
# streptomycin and 2 m M L-glutamine. All cells were regularly tested for mycoplasma contamination. […]
# Spheroids were obtained by plating PC3 and 22Rv1 cells in low -adhesion round bottom 96 -well […]
# After seeding, the cells were centrifuged for 10 min at 1200 x g at 4°C. Spheroids were given 48 hours to form after seeding before adding the treatment or the carrier (0.1% DMSO). Medium supplemented with treatment/carrier was changed every 48 hours, for a total of 32 days for 22Rv1 and 16 days for PC3. Each spheroid was imaged in brightfield every day or every other day (after day 20), using a Leica DM IL microscope […]
# as §1
# [1] = tested on: panel of receptors, channels and transporters; parameters: method as in https://www.thesgc.org/chemical-probes/BAZ2-ICR; conditions: ref https://www.thesgc.org/chemical-probes/BAZ2-ICR; cited from earlier work
# [2] = 3D setting, GSK2801 25 μM, BAZ2‐ICR 25 μM, BI9564 20 μM
smiles,measurement,setting,value
Cn1cc(CCn2cnc(-c3cnn(C)c3)c2-c2ccc(C#N)cc2)cn1 [BAZ2‐ICR],effect on growth of 22Rv1 spheroids,22Rv1 spheroids; [2],similarly affect the growth of 22Rv1 cells; also recorded: interestingly impacting those deriving from 22Rv1 cells
same,slope2 (segmental linear regression of spheroid growth),"22Rv1 spheroids; 22Rv1 spheroids, 25 µM, after X0 = day 9",10618
same,slope1 (segmental linear regression of spheroid growth),"22Rv1 spheroids; 22Rv1 spheroids, 25 µM, before X0 = day 9",17642
same,effect on growth of PC3 spheroids,PC3 spheroids; [2],did not significantly affect PC3 spheroids
same,slope2 (segmental linear regression of spheroid growth),"PC3 spheroids; PC3 spheroids, 25 µM, after X0 = day 6",77288
same,slope1 (segmental linear regression of spheroid growth),"PC3 spheroids; PC3 spheroids, 25 µM, before X0 = day 6",62282
same,"profile on panel of receptors, channels and transporters",[1],clean
